# In patent US12570599B2, “Process for preparing acyl-capped 3-hydroxycarboxylic acids and their salts and esters” (KetoLipix Therapeutics GmbH, priority 2019, dated 2026):
# Legend:
# [1] = Cleavage experiments in FaSSGF medium simulating the stomach, with or without pancreatin (Panzytrat); type: in vitro ADME; conditions: in the presence or absence of pancreatin
# From the text: (§1) Esters tested: • 3-Acetylaceto-BHB ethyl ester • 3-Acetylaceto-BHB decyl ester • 3-Acetylaceto-BHB oleyl ester • 3-Acetylaceto-BHB cetyl ester • 3-Acetylaceto-BHB-margaryl ester • 3-Acetylaceto-BHB stearyl ester • 3-Acetylaceto-BHB behenyl ester • 3-Acetylaceto-BHB melissyl ester • 3-Acetylaceto-BHB palmitoyl ester • 3-Acetylaceto-BHB linoleyl ester For the cleavage experiments under near-body conditions two media are investigated: • FaSSGF, which simulates the stomach • FaSSIF, which simulates the intestinal tract Both media are from the company Biorelevant®, Ltd. in Great Britain. In addition, in some experiments porcine pancreas is added (Panzytrat® 40,000, Fa. Allergan).
# (§2) Under FaSSIF conditions, a lower conversion using Panzytrat® takes place.
# [2] = tested on: pancreatin (Panzytrat 40,000); experiment: Cleavage experiments with pancreatin in water, followed by acid number; type: in vitro ADME, porcine; conditions: each ester in its pure form, 50° C.
# Experimental: 2 g of each of the 3-acetoacetate-BHB ethyl esters prepared as described above and the 3-acetoacetate-BHB fatty alcohol esters prepared as described above are dissolved in 50 g water and 0.5 g (1% by weight) pancreatin is added. The pancreatin is used in the form of the commercially available product Panzytrat® 40,000 from the Allergan company. The whole mixture is stirred on a hot plate at 50° C.; the course of the reaction is determined and monitored by continuously recording the acid number over time. […] This is confirmed by corresponding analytics. The experiment proves that both the 3-acetylaceto-BHB ethyl ester according to the invention and the functionalized derivatives (i. e. 3-acetylaceto-BHB fatty alcohol esters) are suitable physiological precursors for 3-hydroxybutyric acid for the corresponding keto body therapies. The experiments are repeated and verified using each ester in its pure form.
# [3] = Cleavage experiments in FaSSIF medium simulating the intestinal tract, with or without pancreatin (Panzytrat); type: in vitro ADME; conditions: in the presence or absence of pancreatin
# From the text: as §1, §2
# [4] = several grams taken, patients; cited from earlier work
cleavage in gastric medium [1],cleavage by pancreatin [2],cleavage in intestinal medium [3],SMILES,duration of ketosis [4]
cleavage to 3-BHB in the free form,cleaved by pancreatin,cleavage to 3-BHB in the free form,"CCOC(=O)CC(C)OC(=O)CC(C)=O (stereo not shown) [3-acetylaceto-BHB ethyl ester, 3-acetylacetobutyric acid ethyl ester]",
,,,CC(O)CC(=O)O (stereo not shown) [3-hydroxybutyric acid],three to four
